Here are results for 59 molecules from article PMC9775191, “A Subset Screen of the Compounds Australia Scaffold Library Identifies 7-Acylaminodibenzoxazepinones as Potent and Selective Hits for Anti-Giardia Drug Discovery” (Biomedicines, 2022).

The test system of this experiment is G. duodenalis BRIS/91/HEPU/1279. The experiment in a line: Primary Giardia screen at 10 µM (live-cell imaging, automated counting). The conditions noted are these: for % Inhibition n=1 48h / % Inhibition n=1 24h: first singlicate assay; for % Inhibition n=2 24h / % Inhibition n=2 48h: re-assessment. In kind it is cell-based, Giardia duodenalis. The procedure: Each compound was assessed in singlicate, at a final concentration of 10 μM (0.4 μL of a 5 mM stock; diluted to a final volume of 200 μL in culture medium; 0.2% DMSO). […] Plates were incubated in sealed chambers filled with 3% O2, 5% CO2 in N2 and growth was assessed at 24 and 48 h using live cell imaging and automated counting as previously described. Growth inhibition was calculated by subtracting media only background counts and determining percentage growth relative to vehicle (0.2% DMSO) controls. The reliability of these assays was assessed by calculating Z’ factors for each plate as previously described.

For the molecule `O=c1[nH]c(CN2CCCCC2)nc2scc(-c3cccs3)c12` [SN00775605], the “% Inhibition n=1 48h” value was found to be 0.0%. The same measure, in the same setting: with `Cc1cccc(NC(=O)C2CCCN(c3c([N+](=O)[O-])c(C)nn3C)C2)n1` (stereo not shown) [SN00775639] the figure was 0.0%; with `Cc1nn(C)c(N2CCC(C(=O)NC(C)C(C)C)CC2)c1[N+](=O)[O-]` (stereo not shown) [SN00775640], 7.0%. On the same count and under the same terms, the value for `Cc1noc(C)c1S(=O)(=O)N1CCC(C(=O)NCC(c2ccccc2)N(C)C)CC1` (stereo not shown) [SN00775659] was 0.0%; that for `Cc1cnc(CN2CCOC(CNc3cccnn3)C2)o1` (stereo not shown) [SN00775722] was 13.5%; that for `CCOc1cc(C(=O)Nc2ccc(C3=CSC4=NCCCN34)cc2)ccc1OC(F)F` [SN00775741] was 4.5%. With `COCCc1ccc(Oc2nnnn2-c2ccccc2)cc1` [SN00775761], the “% Inhibition n=1 48h” value is on record as 24.6%. On the same count and under the same terms, with `c1ccc(-n2nnnc2Oc2ccc(-c3nc4ccccc4s3)cc2)cc1` [SN00775768] the figure was 19.1%; with `CCCCn1c(=O)[nH]c(=O)c2c1nc(-c1ccc(-c3cccc([N+](=O)[O-])c3)o1)n2CC` [SN00775781], 37.2%. The same measure, in the same setting: the value for `CCCCn1c(=O)[nH]c(=O)c2c1nc(-c1ccc(-c3ccc([N+](=O)[O-])cc3Cl)o1)n2C` [SN00775787] was 19.8%; that for `CS(=O)(=O)N1CCCC1C(=O)OCc1cc(=O)n2c3c(sc2n1)CCCC3` (stereo not shown) [SN00775816] was 10.4%; that for `O=C(Cn1nnc(-c2cccs2)n1)NCc1ccc(Cl)cc1` [SN00775829] was 45.7%. Same read-out and setting: the value for `O=C(Cn1nnc(-c2cccs2)n1)c1ccc(Cl)s1` [SN00775834] was 2.4%; that for `O=C(Nc1ccnn1Cc1ccccn1)c1cccnc1Oc1ccccc1` [SN00775947] was 2.6%. With `O=C(CCc1ccc(F)cc1)Nc1ccn(Cc2ccccn2)n1` [SN00775953], the “% Inhibition n=1 48h” value came to 0.0%. The same measure, in the same setting: the value for `O=S1(=O)CCC(Nc2nc(-c3ccccn3)nc3scc(-c4ccccc4)c23)C1` (stereo not shown) [SN00776030] was 24.9%. For `NC1=Nc2nc3ccccc3n2C(c2ccc(-c3ccc(F)cc3)o2)N1` (stereo not shown) [SN00776094], the “Average % Inhibition 24h” value stood at 0.0%, the “% Inhibition n=1 24h” value came out at 0.0%, the “% Inhibition n=2 24h” value is on record as 0.0% and the “Average % Inhibition 48h” value is given as 18.4%. Besides, the “% Inhibition n=1 48h” value is 31.0% and the “% Inhibition n=2 48h” value is on record as 5.8%. For `CCn1c(C2NC(N)=Nc3nc4ccccc4n32)nc2ccccc21` (stereo not shown) [SN00776112], the “% Inhibition n=1 48h” value turned out to be 5.4%. Same read-out and setting: with `Cc1nc2sccn2c1-c1nc(-c2ccccc2)c(C(=O)c2ccc3c(c2)NC(=O)CO3)s1` [SN00776123] the figure was 7.0%. Still for that read-out and setting: the value for `Cc1nc2sccn2c1-c1nc(-c2cccc3ccccc23)cs1` [SN00776128] was 37.4%; that for `CS(=O)(=O)c1ccc(-c2csc(-n3nccc3C(F)(F)F)n2)cc1` [SN00776135] was 7.7%. On the same count and under the same terms, with `COc1ccc(-c2csc(-n3nccc3C(F)(F)F)n2)cc1OC` [SN00776140] the figure was 27.9%; with `Cc1cc(NC(=O)c2ccc([N+](=O)[O-])cc2)n(-c2nc3ccccc3[nH]2)n1` [SN00776157], 6.0%.

Take `NC1=C(c2nc3ccccc3s2)CC(=O)N1C1CC1` [SN00776353]: the “% Inhibition n=1 48h” value worked out at 0.0%.

As to `Cc1sc(-n2cccc2)c(C(=O)NC2CCCCCC2)c1C` [SN00776382], the “% Inhibition n=1 48h” value came out at 0.0%. Still for that read-out and setting: with `CCc1nnc(NC(=O)c2ccsc2-n2c(C)ccc2C)s1` [SN00776389] the figure was 11.7%. Same read-out and setting: with `c1ccc(-c2cn3nc(-c4ccccc4)n4c3c2CCCC4)cc1` [SN00776412] the figure was 0.0%. Turning to `FC(F)Oc1ccc(-c2csc(Cc3nnc4n3CCCCC4)n2)cc1` [SN00776417], the “Average % Inhibition 24h” value is reported as 12.3%, the “% Inhibition n=1 24h” value was 22.0%, the “% Inhibition n=2 24h” value is given as 2.6% and the “Average % Inhibition 48h” value is given as 19.6%. For the same molecule, the “% Inhibition n=1 48h” value is reported as 34.2% and the “% Inhibition n=2 48h” value was determined as 5.0%. As for `CCN(c1ccc(-c2csc(Cc3nnc4n3CCCCC4)n2)cc1)S(C)(=O)=O` [SN00776436], the “% Inhibition n=1 48h” value was found to be 17.3%. The same measure, in the same setting: with `O=C(C1=C(O)C(=O)N(CCN2CCOCC2)C1c1ccncc1)c1ccccc1` (stereo not shown) [SN00776455] the figure was 0.7%; with `CC1CN(c2nc3c(c(=O)[nH]c(=O)n3C)n2CC(=O)O)CC(C)O1` (stereo not shown) [SN00776554], 4.6%.

As for `O=C(Nc1ccc2c(c1)OCO2)C1CCN(Cc2nnnn2-c2ccccc2)CC1` [SN00776590], the “% Inhibition n=1 48h” value worked out at 4.9%.

`CCN(CC)CCN1C(=O)C(O)=C(C(=O)c2cccs2)C1c1ccc(C)o1` (stereo not shown) [SN00776616]: the “% Inhibition n=1 48h” value is on record as 15.0%.

Take `CN(C)CCCN1C(=O)C(O)=C(C(=O)c2cc(Cl)ccc2O)C1c1ccco1` (stereo not shown) [SN00776642]: the “% Inhibition n=1 48h” value was found to be 14.6%.

Turning to `CCOC(=O)c1sc(N2C(=O)C(O)=C(C(=O)c3ccco3)C2c2ccc(OC)cc2)nc1C` (stereo not shown) [SN00776656], the “% Inhibition n=1 48h” value worked out at 6.9%. Take `Cc1c(C(=O)Nc2cc(-c3ccncc3)n[nH]2)cccc1[N+](=O)[O-]` [SN00776775]: the “Average % Inhibition 24h” value worked out at 6.4%, the “% Inhibition n=1 24h” value was 12.8%, the “% Inhibition n=2 24h” value is recorded as 0.0% and the “Average % Inhibition 48h” value is recorded as 21.4%. Besides, the “% Inhibition n=1 48h” value is 37.2% and the “% Inhibition n=2 48h” value is reported as 5.6%. For the molecule `O=C(Nc1nnc(-c2ccccn2)[nH]1)C1CC(=O)N(CC(F)(F)F)C1` (stereo not shown) [SN00776806], the “% Inhibition n=1 48h” value came out at 9.5%. Take `Cn1c(=O)[nH]c(=O)c2c1nc(N1CCNCC1)n2Cc1ccc(Br)cc1` [SN00776836]: the “% Inhibition n=1 48h” value was 0.0%. Turning to `O=C(CCC(=O)N1CCCC1c1nc2ccccc2[nH]1)c1ccccc1` (stereo not shown) [SN00776900], the “% Inhibition n=1 48h” value was 28.7%. Consider `CCCNC(=O)CCNC(=O)N1CCCC1c1nc2cc(C)ccc2[nH]1` (stereo not shown) [SN00776915], for which the “% Inhibition n=1 48h” value is 37.1%. As to `Cc1cccc(C)c1NC(=O)c1cc(-c2ccccc2)nc2c1cnn2Cc1cccnc1` [SN00776937], the “% Inhibition n=1 48h” value is reported as 17.5%. For `CC(=O)Nc1cc(NC(=O)c2cc(-c3ccccc3)nc3c2cnn3Cc2cccnc2)ccc1F` [SN00776945], the “Average % Inhibition 24h” value is listed as 0.0%, the “% Inhibition n=1 24h” value came out at 0.0%, the “% Inhibition n=2 24h” value worked out at 0.0% and the “Average % Inhibition 48h” value is 25.1%. The “% Inhibition n=1 48h” value is 50.1% and the “% Inhibition n=2 48h” value is on record as 0.0%.

Turning to `Cc1ccc(NC(=O)Cc2nc(-c3ccc4c(c3)CC(=O)N4C)cs2)cc1` [SN00777029], the “% Inhibition n=1 48h” value came out at 10.0%. The same measure, in the same setting: the value for `CN1C(=O)Cc2cc(-c3csc(N=C(N)N)n3)ccc21` [SN00777034] was 0.0%; that for `CS(=O)(=O)N1CCCc2cc(-c3csc(N)n3)ccc21` [SN00777047] was 7.2%. With `CCOC(=O)c1sc2ncnc(Nc3cn[nH]c3)c2c1C` [SN00777183], the “Average % Inhibition 24h” value was determined as 0.0%, the “% Inhibition n=1 24h” value was determined as 0.1%, the “% Inhibition n=2 24h” value worked out at 0.0% and the “Average % Inhibition 48h” value is reported as 30.8%. For the same molecule, the “% Inhibition n=1 48h” value worked out at 42.7% and the “% Inhibition n=2 48h” value was determined as 18.9%.

`COc1ccc(C(=O)N2c3ccccc3NC(=O)CC2C)cc1OC` (stereo not shown) [SN00777269]: the “% Inhibition n=1 48h” value is 0.0%.

For the molecule `CCN(CC)S(=O)(=O)c1ccc(Nc2ccn(CCc3ccccn3)n2)c([N+](=O)[O-])c1` [SN00777378], the “Average % Inhibition 24h” value is listed as 10.7%, the “% Inhibition n=1 24h” value is on record as 21.3%, the “% Inhibition n=2 24h” value was determined as 0.0% and the “Average % Inhibition 48h” value turned out to be 25.2%. Moreover, the “% Inhibition n=1 48h” value is on record as 39.2% and the “% Inhibition n=2 48h” value is reported as 11.3%. Turning to `COc1cccc(N2CCN(C(=O)c3ccc4noc(-c5ccccc5)c4c3)CC2)c1` [SN00777397], the “Average % Inhibition 24h” value is 9.9%, the “% Inhibition n=1 24h” value came to 17.2%, the “% Inhibition n=2 24h” value worked out at 2.5% and the “Average % Inhibition 48h” value amounted to 28.2%. The “% Inhibition n=1 48h” value amounted to 56.5% and the “% Inhibition n=2 48h” value is given as 0.0%.

For `O=C(c1ccccc1)N1CCN(C(=O)c2ccc3noc(-c4ccccc4)c3c2)CC1` [SN00777400], the “% Inhibition n=1 48h” value was 15.8%.

For the molecule `CC(=O)Nc1ccc(C(=O)OCc2cc(-c3cccs3)on2)s1` [SN00777515], the “% Inhibition n=1 48h” value is reported as 14.0%. Same read-out and setting: with `Cc1nnc(NC(=O)c2ccc3c(=O)n4c(nc3c2)CCCCCC4)s1` [SN00777547] the figure was 37.7%. The same measure, in the same setting: with `Cn1nc2c(c1NC(=O)c1cccc(NC(=O)C(C)(C)C)c1)CCC2` [SN00777576] the figure was 0.0%. Same read-out and setting: the value for `COC(=O)c1cc(C(=O)Nc2c3c(nn2C)CCC3)cc([N+](=O)[O-])c1` [SN00777586] was 12.1%; that for `O=C(c1cc(C2CC2)nc2ccccc12)N1CC2CCC1C2` (stereo not shown) [SN00777604] was 18.4%. On to `O=C(CN1C(=O)CC2(CCCCC2)C1=O)Nc1ccc([N+](=O)[O-])cc1` [SN00777618], for which the “% Inhibition n=1 48h” value is 47.2%.

Take `Cc1cc(C2CCCN2Cc2cc(-c3ccco3)on2)on1` (stereo not shown) [SN00777724]: the “% Inhibition n=1 48h” value is 35.3%. Still for that read-out and setting: with `CCC(=O)N1CCCC1C1CCCN1Cc1cn2c(C)cccc2n1` (stereo not shown) [SN00777763] the figure was 16.6%; with `O=c1n(Cc2ccc(F)cc2)nnn1-c1ccccc1` [SN00777772], 48.5%.
